Assay results from ChEMBL document CHEMBL3217718, “Synthesis, radical scavenging activity and structureactivity relationship of uric acid analogs” (Medchemcomm, 2013).
In brackets after ≈: the same amount, converted by molar mass. Activity calls are given as the source filed them. The rule behind the calls is not given here.

Tests used:
[1] = Solubility of the compound in PBS buffer at pH 7.4 at 37 degC; type: physicochemical
HL-60 = assay: Cytotoxicity against human HL60 cells assessed as cell viability up to 120 uM after 24 hrs by trypan blue assay; type: cell-based; settings: hl-60, 24 h
[2] = system: Radical scavenging activity; assay: Antioxidant activity assessed as DPPH radical scavenging rate constant measured for 60 secs by spectrophotometric analysis; type: functional
[3] = system: Radical scavenging activity; assay: Antioxidant activity assessed as DPPH radical scavenging activity at 500 uM measured for 60 secs by spectrophotometric analysis; type: functional
[4] = Solubility of the compound in serum at pH 7.4; type: ADME

Compound | Activity [2] [×10³ /M/s] | Activity [3] | further results
O=c1[nH]c2ccc(O)nc2[nH]1 | 71 |  | solubility [1]: 82 µg/mL (≈ 543 µM); Activity (HL-60): Non-toxic
Oc1ccc2c(c1)CCC2 |  | inactive | 
COc1ccc2[nH]c(=O)[nH]c2c1 |  | inactive | 
O=c1[nH]c2cccc(O)c2[nH]1 | 0.37 |  | 
COc1ccc2[nH]c(=O)[nH]c2n1 |  | inactive | 
O=C1Cc2cc(O)ccc2N1 | 11 |  | solubility [1]: 225 µg/mL (≈ 1510 µM); Activity (HL-60): Non-toxic
c1ccc2[nH]cnc2c1 |  | inactive | 
Nc1ccc(O)cc1 [4-AMINOPHENOL] | 310 |  | Activity (HL-60): Toxic
Oc1ccc2[nH]ccc2c1 | 2.6 |  | 
O=C1Cc2ccc(O)cc2N1 | 0.93 |  | 
O=C1Cc2ccccc2N1 |  | inactive | 
Oc1ccc2cc[nH]c2c1 | 11 |  | 
Oc1cccc2c1CCN2 | 0.21 |  | 
[Na+].[O-]c1nc2c(O)nc(O)nc2[nH]1 | 0.7 |  | solubility [4]: 70 µg/mL
O=C1Cc2cccc(O)c2N1 | 0.12 |  | 
CC1=NN(c2ccccc2)C(=O)C1 | 72 |  | 
O=c1[nH]c2ccc(O)cc2[nH]1 | 110 |  | solubility [1]: 65 µg/mL (≈ 433 µM); Activity (HL-60): Non-toxic
O=C1Cc2ccccc2C1 |  | inactive | 
O=c1[nH]c(=O)c2[nH]c(=O)[nH]c2[nH]1 [URIC ACID] |  |  | solubility [1]: 53 µg/mL (≈ 315 µM); Activity (HL-60): Non-toxic
O=c1[nH]c2ccccc2[nH]1 |  | inactive | 
O=c1[nH]c2ccc(O)cc2o1 | 8.7 |  | 
Oc1ccc(O)cc1 [HYDROQUINONE] | 4.4 |  | Activity (HL-60): Toxic
